Source: patent US20160324884A1, “TREATMENT OF DIABETES WITH PENTACYCLIC TRITERPENOID SAPONIN COMPOUNDS FROM SZECHUAN MELANDIUM ROOT” (priority 2013, published 2016)
Entries after “also recorded” stand apart in the source; their conditions may differ.

How the values were obtained:
KK^Ay mice [1] = assay: Glycemia in KK^Ay mice during treatment and after withdrawal (Example 3); assay type: in vivo; conditions: for descending rates of blood glucose: T2DM mice, 2 mg/kg, two weeks after subcutaneous injection
Source text: (§1) 60 male KK^Ay mice (12 weeks of age, License NO. SCXK (BJ) 2009-0015, Beijing Huafukang Biology Technology Co. Ltd.) and 10 normal male C57BL/6 mice (12 weeks of age, License NO. SCXK (BJ) 2009-0015, Beijing Huafukang Biology Technology Co. Ltd.) were adaptively bred for one week, and then used in the following experiment.
(§2) 60 KK^Ay mice were adaptively bred for 1 week, and then randomly assigned into 6 groups: Model group, Compound (1) group, Compound (2) group, Compound (3) group, Compound (4) group, and metformin group, 10 mice per group. 10 normal C57BL/6 mice were used for the control group. KK^Ay mice were in a high-fat diet, and the control normal mice were in a normal control diet. The control and model groups were hypodermically injected with sterile water, the 6 medicated groups mice were subcutaneously injected with […] Wacao saponins, (Compounds (1), (2), (3) and (4)) respectively, and the positive group was administered metformin by gavage. All mice were administrated at 9 am for 2 weeks and the administration volume is 10 ml/kg BW.
(§3) Compound (1), (2), (3) and (4) were respectively dissolved into sterile water, and sterilized with filtration for Sc. to the medication groups. The metformin was dissolved into sterile water for lg. to the positive control group. Control and model groups animals were injected with sterile water (10 ml/kg BW), Sc. All the animals were treated daily at 9 am for 2 weeks (14 days).
(§4) Blood detection: Blood glucose was measured weekly. Overnight fasting glycemia level was measured with One Touch ULTRA Glucometer for the tail blood test. At the end of the experiment, blood serum was collected for measuring levels of fasting blood glucose and insulin, and the insulin sensitivity index (ISI) was calculated. At the same time, hepatic tissues and skeletal muscles of mice were taken out to determine levels of hepatic and muscle glycogen by detection kits.
Termination of the experiment After administrating mice for 2 weeks (14 days), the experiment was terminated.
This experiment is to observe the anti-hyperglycemia effects of Wacao saponins on KK^Ay mice during and after the period of drug treatment, respectively.

KK^Ay mice [2] = assay: Effects of Wacao saponins on glycemia in KK^Ay T2DM mice (Example 2); assay type: in vivo; conditions: for glycemia (fasting tail blood glucose), hypoglycemic activity: after 1 week; for anti-hyperglycemia effect, compounds compared with each other: 2.0 mg/kg BW Sc, 2 weeks, ranking
Source text: as §1, with “80” for “60”, “10 male” for “10”, “normal” for “normal male”, “pharmacological” for “following”
The animals were housed individually in wood-chip-bedded plastic cages. Germ-free and high-fat diets (Beijing Huafukang Biology Technology Co. Ltd.) were used to feed the KK^Ay mice, and the standard laboratory chows were used to feed normal C57BL/6 mice. All the animals had free access to food and water.
80 KK^Ay mice were adaptively bred for 1 week, and then randomly assigned into 8 groups: Model group, Compound (1) group, Compound (2) group, Compound (3) group, Compound (4) group, Compound (7) group, Compound (8) group and metformin group, 10 mice per group. 10 normal C57BL/6 mice were used as the control group. KK^Ay mice were fed with the high-fat diet, and the control group was fed with the normal control diet. The control and model groups were hypodermically injected with sterile water, 6 medicated groups were hypodermically injected with 6 kinds of Wacao saponins, the Compounds (1), (2), (3), (4), (7) and (8), and the positive group (metformin group) was irrigated per oral. All groups were administrated at 9 am for 2 weeks. The administrating volume is 10 ml/kg BW and the administration dosage is shown in Table3.
All mice of the fasting tail blood glucose level were measured weekly using One Touch ULTRA Glucometer (Life Scan Johnson and Johnson, USA).
Each compound of Wacao saponins was dissolved into sterile water and sterilized with filtration for Sc. The metformin was dissolved into sterile water for lg. The control and model group mice were injected with sterile water, Sc. All the animals were treated at 9 am for 2 weeks.
Overnight fasting tail blood glucose level was measured weekly using One Touch ULTRA Glucometer and measured for twice.
Each group was administrated for 2 weeks (14 days) and then the experiment was terminated.
Results are expressed as means±SD. Statistical analysis were analyzed by using SPSS 10.0 software. Data were evaluated with analysis of variance.

KK^Ay mice [3] = assay: Hepatic and muscle glycogen in KK^Ay mice (Example 3); assay type: in vivo; conditions: 2.0 mg/kg Sc, after 2 weeks, vs model group
Source text: as §2
(§5) The body weight, food and water intake of each mouse was measured and recorded weekly throughout the course of the experiment. At the end of the experiment, collected the blood and separated serum, fasting blood glucose, insulin levels and insulin sensitivity index (ISI) were measured or calculated in each group. Liver, skeletal muscles of mice in each group were taken and weighed for detecting glycogen levels of the hepatic and muscles after mice being killed.
as §3, §4

KK^Ay mice [4] = assay: Body weight, food and water intake in KK^Ay mice (Example 3); assay type: in vivo; conditions: after 1 week, compounds 2.0 mg/kg Sc, metformin 500 mg/kg lg, vs model group
Source text: as §1
The animals were housed individually in wood-chip-bedded plastic cages. Germ-free and high-fat diets (Beijing Huafukang Biology Technology Co. Ltd.) were used to feed the KK^Ay mice. All the animals had free access to food and water.
as §2, §5, §3
Measurement of food and water intake: 24 hours' food and water intake were measured by gravimetry once a week. It should be paid attention to recycling leakage of small forage into the feed box to ensure the accuracy of food intake.
Determination of body weight: The body weight of mice was measured and recorded once a week.
Results are shown as means±SD. Statistical analysis data were analyzed by using SPSS 10.0 software. Data were evaluated with analysis of variance.

T2DM rats [5] = assay: Glycosylated serum protein (GSP) and liver and muscle glycogen in T2DM rats (Example 5); assay type: in vivo, SD rats; conditions: 4.0 mg/kg Sc vs glucobay 20 mg/kg lg
Source text: (§6) 50 SD rats were adaptively bred for 1 week, and then randomly assigned into 5 groups: The control group, model group, Compound (1) group, Compound (2) group and glucobay group (the positive group), 10 rats per group. All the animals were in a standard laboratory diet. Control and model group animals were hypodermically injected with sterile water, test compound treatment groups were subcutaneously injected with the Compounds (1) and (2), and the positive group was administrated glucobay solution by gavage. All the animals were administrated at 9 am for 2 weeks, and the dose volume is 10 ml/kg BW.
(§7) The Compounds (1) and (2) were dissolved into sterile water, and sterilized with filtration, Sc. Glucobay was dissolved into sterile water, lg. Animals in the control and model groups were injected with sterile water (10 ml/kg BW), Sc. All the animals were treated at 9 am for 2 weeks (14 days).
All rats except the control group were administrated intragastrically with the high-fat emulsion (10 ml/kg) and weighed the body weight weekly. After weeks of administration, rats were intraperitoneally injected with streptozotocin (STZ, dissolved in citric acid-citrate sodium solution, pH 4.2, freshly prepared and used instantly, and store away from light) (30mg/kg). 4 days later, blood glucose level in rats was measured by tail blood test. […]

normal ICR mice = assay: Glycemia in normal ICR mice (Example 4); assay type: in vivo; conditions: 2.0 mg/kg Sc, after 2 weeks, vs control group
Source text: 40 male ICR mice (20-22g, License NO. SCXK (BJ) 2011-0004, Beijing SPF Experimental Animal Technology Co. Ltd.) were adaptively bred for one week, and then used in the following experiment.
Animals were housed individually in wood-chip-bedded plastic cages and fed the standard laboratory chow. All the animals had ad libitum access to food and water.
40 ICR mice were adaptively bred for 1 week, and then randomly assigned into 4 groups: Model, Compound (1), Compound (2) and metformin group, 10 mice per group. All the animals were fed with normal food. Mice in the control group were hypodermically injected with sterile water. The treated groups were subcutaneously injected with Compounds (1) and (2), respectively. And the positive group was administrated metformin by gavage. All the animals were administrated at 9 am for 2 weeks, and the dose volume is 10 ml/kg BW.
Compound (1) and (2) were respectively dissolved into sterile water, and sterilized with filtration for Sc. The metformin was dissolved into sterile water for lg. to the positive control group. Mice in the control group were injected with sterile water (10 ml/kg BW), Sc. All the animals were treated at 9 am for 2 weeks (14 days).
Blood detection: Blood glucose was measured weekly. Overnight fasting glycemia was measured by One Touch ULTRA Glucometer (LifeScan Johnson and Johnson, USA) for the tail blood test.
End of the experiment: After mice being administrated for 2 weeks (14 days), the experiment was terminated.

T2DM rats [6] = assay: Fasting glycemia in T2DM model rats (high-fat emulsion + STZ, Example 5); assay type: in vivo, SD rats
Source text: 50 male SD rats (180-200 g, License NO. SCXK (BJ) 2011-0004, Beijing SPF Experimental Animal Technology Co. Ltd.) were adaptively bred for 1 week, and then used in the pharmacological experiment.
Animals were housed individually in wood-chip-bedded plastic cages and fed a standard laboratory chow. All the animals had ad libitum access to food and water.
as §6, §7
All rats except the control group were administrated intragastrically with the high-fat emulsion (10 ml/kg) and weighed the body weight weekly. After weeks of administration, rats were intraperitoneally injected with streptozotocin (STZ, dissolved in citric acid-citrate sodium solution, pH 4.2, freshly prepared and used instantly, and store away from light) (30mg/kg). 4 days later, blood glucose level in rats was measured by tail blood test. Diabetes was defined as fasting blood glucose level>11.1 mmol/Lin in this experiment.
The blood glucose level was measured before and after administration of the treatment compounds for 2 weeks, respectively. The animals were fasted overnight and tail blood samples were taken. Fasting glycemia was measured by using One Touch ULTRA Glucometer or kits.

[7] = 2.0 mg/kg BW Sc daily, vs model group

Row | Molecule | descending rates of blood glucose (KK^Ay mice [1]) [%] | glycemia (fasting tail blood glucose), hypoglycemic activity (KK^Ay mice [2]; [7]) | anti-hyperglycemia effect, compounds compared with each other (KK^Ay mice [2]) | muscle glycogen level (KK^Ay mice [3]) | other results
1 | COC(=O)C1OC(O[C@H]2CC[C@]3(C)[C@H]4C=CC5[C@@H]6CC(C)(C)C[C@@H](C(=O)OC7OC(C)C(OC(=O)/C=C/c8ccc(C)cc8)C(OC(C)=O)C7OC7OC(C)C(O)C(O)C7O)C6[C@H](O)C[C@@]5(C)[C@]4(C)CC[C@H]3[C@]2(C)C=O)C(OC2CC(CO)C(O)C(O)C2O)C(OC2OCC(O)C(O)C2O)C1O (stereo partly shown) [Compound (3), sinocrassuloside VIII] | 60 | then followed by Compound (2), Compound (4), Compound (3) and Compound (7) | followed by Compound (3) and (4) (cis-trans-isomers), and Compound (7) | weaker efficacy in raising level of muscle glycogen which had no statistical significant difference compared with that of the model group | –
2 | sinocrassuloside XII [Compound (7)] | – | then followed by Compound (2), Compound (4), Compound (3) and Compound (7) | followed by Compound (3) and (4) (cis-trans-isomers), and Compound (7) | – | –
3 | CN(C)C(=N)N=C(N)N [metformin, reference compound] | – | – | – | – | food intake (KK^Ay mice [4]): decreased obviously; glycemic level after drug withdrawal (KK^Ay mice [1]; KK^Ay mice, 2 weeks after stopping 2-week medication, vs model (untreated) group): rebounded to a high level which showed no significant difference compared with that of the model group
4 | CC(=O)OC1C(OC(=O)/C=C\c2ccc(C)cc2)C(C)OC(OC(=O)[C@@H]2CC(C)(C)C[C@@H]3C2[C@H](O)C[C@]2(C)C3C=C[C@@H]3[C@@]4(C)CC[C@H](OC5OC(C(=O)O)C(O)C(OC6OCC(O)C(O)C6O)C5OC5OC(CO)C(O)C(O)C5O)[C@@](C)(C=O)[C@@H]4CC[C@]32C)C1OC1OC(C)C(O)C(O)C1O (stereo partly shown) [Compound (2), sinocrassuloside VII] | 60 | then followed by Compound (2), Compound (4), Compound (3) and Compound (7) | strongest anti-hyperglycemia effect | stronger efficacy in raising levels muscle glycogen | effect on glycogen levels and GSP levels compared with glucobay (T2DM rats [5]): better effect on up-regulating of glycogen levels and down-regulating of GSP levels; also recorded: superior to that of glucobay; also recorded: stronger than glucobay; glycemia level (normal ICR mice): decreased much obviously; anti-hyperglycemia efficacy compared with glucobay (T2DM rats [6]; 4.0 mg/kg Sc vs glucobay 20 mg/kg lg, 2 weeks): stronger than glucobay; glycemia level (T2DM rats [6]; 4.0 mg/kg Sc, after 2 weeks, vs model group): significantly decreased
5 | sinocrassuloside XIII [Compound (8)] | – | – | no significant effect of anti-hyperglycemia compared with that of the other compounds | – | glycemia (fasting tail blood glucose), hypoglycemic activity (KK^Ay mice [2]; 2.0 mg/kg BW Sc daily, vs model group, 2 mg/kg): weakest hypoglycemic activity which has no significant difference compared with that of the model group; also recorded: only the trend of anti-hyperglycemia activity, but showed no statistical difference; glycemia (fasting tail blood glucose) (KK^Ay mice [2]; 2.0 mg/kg BW Sc daily, after 2 weeks, vs model group): Significant differences appeared
